The record followed here is ChEMBL document CHEMBL1201862, “PubChem BioAssay data set” (2004).

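1) Cells in 96-well plates. 2) Compound, 48 h, 5 concentrations. 3) Linear interpolation between surrounding doses. 4) Unreached endpoint = highest concentration. Here, GI50 denotes the concentration required for 50% inhibition of growth.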 Activity calls are given as the source filed them. No stated cut-off is given here; in the data, active = GI50 up to about 1.1 µM and inactive = higher. Some results are limits rather than exact numbers.

Among the test systems are DLD-1; DMS-114; DMS-273; HOP-18; KM-20L2; M19-MEL; RXF 631; SNB-78; XF498.
Holding throughout (assay): NCI anticancer screen, dose series, 48 h

For `CC(=O)OC1COC(n2c(=S)n(-c3ccc(C)cc3)c(=O)c3ccccc32)C(OC(C)=O)C1OC(C)=O` (configuration not stated), the GI50 in the assay on DLD-1, in the assay with DMS-114, in the assay with DMS-273, with HOP-18, with KM-20L2 and with M19-MEL was > 100 µM (inactive) in each case. Further, the GI50 in the assay on RXF 631 is 68.9 µM (inactive); with SNB-78, > 100 µM (inactive); in the assay with XF498, > 100 µM (inactive).

For `C[C@H](N)C(=O)N[C@@H]1[C@H]2C(=C(O)C[C@@H](O)[C@@H]2O)C(=O)O[C@]1(C)C(Cl)Cl` [BACTOBOLIN], the GI50 is 0.24 µM (active) in the assay with DLD-1; 0.178 µM (active) with DMS-114; 0.327 µM (active) in the assay with DMS-273; 0.57 µM (active) in the assay with HOP-18; 0.262 µM (active) in the assay with KM-20L2; 0.232 µM (active) with M19-MEL. In addition, the GI50 in the assay on RXF 631 was 0.289 µM (active); in the assay with SNB-78 it was 0.281 µM (active); in the assay with XF498 it was 0.0938 µM (active).

For the compound `Cc1[nH]c2ccccc2c1C1Cc2ccccc2N1C(=O)/C(Cl)=C/c1ccccc1` (configuration not stated), the GI50 with DLD-1 was 74.3 µM (inactive); in the assay with DMS-114 it was > 20.9 µM (inactive); in the assay with DMS-273, > 100 µM (inactive); with HOP-18, 66.2 µM (inactive); with KM-20L2, > 100 µM (inactive); with M19-MEL it was > 100 µM (inactive). Besides, the GI50 with RXF 631 was > 100 µM (inactive); in the assay with SNB-78, 23.3 µM (inactive); in the assay with XF498, 12.4 µM (inactive).
